Experimental data published in US20260355199A1, “COMPOSITIONS AND METHODS FOR TREATING OR PREVENTING NONALCOHOLIC STEATOHEPATITIS (NASH), ANOREXIA, DEPRESSION, ENDOMETRIOSIS, AND OTHER DISEASES OR DISORDERS” (priority 2022, published 2026).
Entries after “also recorded” stand apart in the source; their conditions may differ.

What was measured:
[1] = tested on: hM4Di; test: Chemogenetic inhibition of AgRP neurons with C21; assay type: in vivo, mouse; settings: C21 0.5 mg/kg by osmotic pump, TET3 knockdown mice
Text: To determine the relevance of activated AgRP neurons from TET3 knockdown, the chemogenetic tool of designer receptors exclusively activated by designer drugs (DREADDs) was used. AAV-sgTet3 was co-injected with an AAV containing a Cre-dependent hM4Di-mCherry transgene (AAV-hM4Di) (Krashes, M. J. et al., 2011, Journal of Clinical Investigations, 121:1424-1428) bilaterally into the ARC of Cas9+ mice, followed by implantation of an osmotic pump to infuse DREADD agonist 21 (C21) (Thompson, K. J. et al., 2018, ACS Pharmacology & Translational Science, 1:61-72) or saline (FIG. 9K). AgRP neuron-specific expression of hM4Di was confirmed by immunofluorescence (FIG. 11).
Three days after bilateral ARC co-injection with AAV-sgTet3 and AAV-h4MDi, a mini-osmotic pump (model 1007D, Alzet) was implanted subcutaneously. The osmotic pump was filled with either sterile saline solution or DREADD agonist compound 21 (C21) dihydrochloride (0.5 mg/kg, HB6124-25 mg, Hello Bio). Food intake measurement and ITT were performed at day 5 and day 9 post-injection, respectively. For food intake assays, food pellets were weighed at 10:00 each day for 3 continuous days and an average of three-day food intake was calculated.

[2] = tested on: estrogen receptor; settings: cited from earlier work
[3] = tested on: TET3 and CD163; test: TET3 expression and TET3/CD163 double-positive cells in human MDMs; assay type: cell-based; settings: for TET3 expression: TGF-β1 10 ng/ml or MCP1 200 ng/ml; for number of TET3/CD163 double-positive cells: TGF-β1 10 ng/ml, 48 h
Experimental: To prepare CM-HSC and CM-Endo, LX-2 and human endometriosis cells were seeded in 24-well plates (2.5×10^5 cells/well) with their respective growth media and allowed to grow to ~50% confluency. Cells were then washed with PBS and incubated with fresh growth media (500 μl/well) for an additional 24 h. Cell supernatant (CM-HSC/CM-Endo) was collected and immediately used to treat MDMs after 1:1 dilution with their respective growth media. In the control group, only respective growth media were used.
After wash in cold PBS, adherent cells were fixed with 4% paraformaldehyde in PBS for 15 min and permeabilized with 0.4% TritonX-100 for 15 min. Cells were blocked in 5% donkey serum/PBS-T at RT for 30 min and quickly washed once with PBS-T before antibody incubation. Primary antibodies were diluted in 2% donkey serum/PBS-T. For CD163/TET3 double staining, cells were incubated with anti-TET3 (GeneTex, GTX121453, diluted at 1:400 for MDMs; Millipore Sigma, ABE290, diluted at 1:500 for mouse peritoneal macrophages) and anti-CD163 (Abcam, ab156769, diluted at 1:400 for MDMs; Santa Cruz Biotechnology, sc-58965, diluted at 1:200 for peritoneal macrophages) overnight at 4 °C. The next day, cells were washed 3 times with PBS-T and incubated in 0.4% Triton X-100/PBS with donkey anti-Rabbit IgG Fluor 594 (Invitrogen, A-21207, diluted at 1:500) and goat anti-Mouse lgG Fluor 488 (Invitrogen, A-11029, diluted at 1:500) for 1 h at RT. Cells were covered with antifade mounting medium with DAPI (Vector laboratories, H-2000), scoped using a Keyence BZ-X700 fluorescence microscope.
Total RNAs were extracted from cells using PureLink RNA Mini Kit. 0.5-1 μg total RNA was reverse transcribed to cDNA in a reaction volume of 20 μL using PrimeScript RT Reagent Kit. Real-time quantitative PCR was performed in a 15 μL reaction volume containing 0.5-1 μL of cDNA using SsoAdvanced Universal SYBR Green Supermix in a Bio-Rad iCycler. Gene expression levels were normalized against RPLP0.

[4] = tested on: TET3 and CD163; test: TET3 expression in mouse peritoneal macrophages; assay type: cell-based; settings: wild-type mouse peritoneal macrophages
Experimental: Peritoneal macrophages were collected from the peritoneal cavity of WT or Mye-Tet3 ko mice by injecting 10 mL of PBS followed by gentle abdominal massaging for 5 min. Cells were pelleted by centrifugation at 1500×g at 4 °C for 8 min. To remove red blood cells, cells were resuspended in […] (Biolegend, 420302, diluted to 1×) and allowed to stand for 5 min, followed by addition of PBS to stop the reaction and twice wash with PBS by centrifugation. Macrophages were enriched by plating cells in RPMI 1640 supplemented with 10% FBS and 1% Anti-Anti for 2 h at 37 °C in a 5% humidified CO2 tissue culture incubator. Non-adherent cells were then removed with three PBS washes.
After wash in cold PBS, adherent cells were fixed with 4% paraformaldehyde in PBS for 15 min and permeabilized with 0.4% TritonX-100 for 15 min. Cells were blocked in 5% donkey serum/PBS-T at RT for 30 min and quickly washed once with PBS-T before antibody incubation. […] Cells were covered with antifade mounting medium with DAPI (Vector laboratories, H-2000), scoped using a Keyence BZ-X700 fluorescence microscope.

[5] = tested on: IL-1β; settings: phase III clinical trial; cited from earlier work
[6] = tested on: IL-6 receptor; settings: rats; cited from earlier work

**Q.** Which hyperphagia [1] does the source give for `Cl.Cl.c1ccc2c(c1)N=C(N1CCNCC1)c1ccccc1N2` [C21] here?
**A.** The hyperphagia was “suppressed hyperphagia”.

**Q.** And the systemic insulin resistance [1]?
**A.** The systemic insulin resistance was “reversed systemic insulin resistance”.

**Q.** Which estrogen receptor degradation [2] does the source give for `CCCCN(C)C(=O)CCCCCCCCCC[C@@H]1Cc2cc(O)ccc2[C@H]2CC[C@]3(C)[C@@H](O)CC[C@H]3[C@H]12` [ICI 164,384] here?
**A.** The estrogen receptor degradation was “induces its degradation without affecting its mRNA expression”.

**Q.** Which TET3 expression [3] does the source give for MCP1: MCP1, also known as CCL2 here?
**A.** Its TET3 expression is “resulted in similar effects”.

**Q.** What about the “TET3 expression and TET3/CD163 double-positive cells” value [4] of the same molecule?
**A.** The value was “increase TET3 expression and TET3/CD163 double-positive cells”.

**Q.** What does the source list for “TGF-β1: purified TGF-β1 (PeproTech, 100-21)”?
**A.** TET3 expression [3]: increased TET3 expression; also recorded: increased TET3 mRNA; TET3 expression ([3]; listed as TGF-b1): increased TET3 expression both at mRNA and protein levels; number of TET3/CD163 double-positive cells [3]: increased TET3 expression and the number of TET3/CD163 double-positive cells; also recorded: increase in the number of TET3/CD163 double-positive cells; number of TET3/CD163 double-positive cells ([3]; listed as TGF-b1): increase in the number of TET3/CD163 double-positive cells; TET3 expression and TET3/CD163 double-positive cells [4]: increase TET3 expression and TET3/CD163 double-positive cells

**Q.** For “canakinumab: a human monoclonal antibody specific for IL-1β”, which “incident NSCLC and lung cancer mortality” value [5] is on record?
**A.** The value was “substantially reduced incident NSCLC and lung cancer mortality in a dose-dependent manner”.

**Q.** Which endometriosis burden [6] does the source give for “tocilizumab: an anti-IL-6 receptor monoclonal antibody” here?
**A.** Its endometriosis burden is “significantly reduced endometriosis burden”.
